In patent US20170088545A1, “CARBOXAMIDE INHIBITORS” (Norvartis AG, priority 2014, published 2017):

Assays:
Smurf-1 = Smurf-1 (Homo sapiens, UniProt Q9HCE7); experiment: HECT E3 ligase autoubiquitinylation TR-FRET assay, Smurf-1; format: biochemical; conditions: 45 min incubation, 8-point dose-response
Excerpt: (§1) To determine the HECT E3 ligase selectivity of the compounds, a panel of biochemical HECT E3 ligase autoubiquitinylation assays was employed (Smurf-1, Smurf-2, WWP1, WWP2, ITCH, Nedd4, Nedd4L and E6AP). The conjugation of ubiquitin to a protein substrate is a multistep process. In an initial ATP-requiring step, a thioester bond is formed between the carboxyl terminus of ubiquitin and an internal cystein residue of the ubiquitin-activating enzyme (E1). Activated ubiquitin is then transferred to a specific cystein residue of an ubiquitin-conjugating enzyme (E2). E2s donate ubiquitin to a HECT E3 ligase (E3) from which it is transferred to the substrate protein. HECT E3 ligases can auto-ubiquitinylate. This event is detected in the TR-FRET (Time-Resolved Fluorescence Resonance Energy Transfer) assay used in this panel. The reaction mix contains E1, E2, tagged-E3, biotin-conjugated ubiquitin, the compound and ATP in a suitable buffer and is incubated for 45 minutes to allow auto-ubiquitinylation of the E3 ligase. To measure the extent of ubiquitinylated E3 ligase by TR-FRET, the donor fluorophore Europium cryptate (Eu3+ cryptate), conjugated to streptavidin which subsequently binds to biotinylated ubiquitin, and the modified allophycocyanin XL665 (HTRF® primary acceptor fluorophore) coupled to a tag-specific antibody (HA, His or GST), which recognizes the respective E3 ligase fusion proteins, are added after the reaction is complete. When these two fluorophores are brought together by a biomolecular interaction (in this case ubiquitinylation of the E3 ligase), a portion of the energy captured by the Cryptate during excitation is released through fluorescence emission at 620 nm, while the remaining energy is transferred to XL665. This energy is then released by XL665 as specific fluorescence at 665 nm. Light at 665 nm is emitted only through FRET with Europium.
(§2) Test and reference compounds are prepared at 180× [final] in 90% DMSO, and diluted 1:3 in 90% DMSO.
(§3) For the biochemical assay panel, 50 nl of the test compounds, reference compounds and buffer/DMSO control are transferred to the respective wells of a 384-well white GREINER “SMALL VOLUME” PS plate. The assay panel is run at room temperature on a Biomek FX liquid handling workstation. To the assay plates containing 50 nl compound or control solutions in 90% DMSO, 4.5 ul of E3 ligase solution were added per well, followed by 4.5 ul of the pre-incubated E1/E2/Ub mix or the pre-diluted ubiquitin (LOW control). Plates are shaken vigorously after each addition. In this assay the compound concentrations range from 3 nM to 10 uM in an 8-point dose-response curve.
(§4) After 45 min of incubation the ubiquitinylation reactions were stopped by adding 4.5 ul 2 mM NEM, immediately followed by 4.5 ul of a detection solution including the XL665-labeled antibody and the streptavidin-coupled europium to give a total volume of 18 ul. After an incubation time of 45 min in the dark, the plates are transferred into the Pherastar fluorescence reader to measure the TR-FRET signal.

Smurf-2 = Smurf-2 (Homo sapiens, UniProt Q9HAU4); experiment: HECT E3 ligase autoubiquitinylation TR-FRET assay, Smurf-2; format: biochemical; conditions: 45 min incubation, 8-point dose-response
Excerpt: as §1, §2, §3, §4

Sequence of Smurf-1 (Q9HCE7 whole entry): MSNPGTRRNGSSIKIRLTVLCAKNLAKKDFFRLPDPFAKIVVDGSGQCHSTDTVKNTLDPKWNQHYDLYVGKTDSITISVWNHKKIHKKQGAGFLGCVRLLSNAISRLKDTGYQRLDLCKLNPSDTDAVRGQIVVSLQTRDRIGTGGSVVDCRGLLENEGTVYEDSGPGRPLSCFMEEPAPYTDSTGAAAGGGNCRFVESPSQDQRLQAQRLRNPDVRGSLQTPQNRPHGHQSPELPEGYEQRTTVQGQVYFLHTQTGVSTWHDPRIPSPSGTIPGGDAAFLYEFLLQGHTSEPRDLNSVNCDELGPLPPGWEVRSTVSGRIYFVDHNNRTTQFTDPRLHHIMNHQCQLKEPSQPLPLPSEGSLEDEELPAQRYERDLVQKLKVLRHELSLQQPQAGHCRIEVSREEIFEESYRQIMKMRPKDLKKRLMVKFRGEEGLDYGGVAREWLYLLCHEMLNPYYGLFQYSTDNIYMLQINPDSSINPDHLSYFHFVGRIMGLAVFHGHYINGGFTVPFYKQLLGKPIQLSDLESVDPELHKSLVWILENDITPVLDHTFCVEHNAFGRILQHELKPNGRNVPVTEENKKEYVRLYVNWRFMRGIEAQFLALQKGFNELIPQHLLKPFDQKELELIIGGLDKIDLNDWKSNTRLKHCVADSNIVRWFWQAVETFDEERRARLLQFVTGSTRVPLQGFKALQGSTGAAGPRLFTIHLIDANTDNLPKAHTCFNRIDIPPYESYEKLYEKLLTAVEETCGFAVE
Sequence of Smurf-2 (Q9HAU4 whole entry, species assumed): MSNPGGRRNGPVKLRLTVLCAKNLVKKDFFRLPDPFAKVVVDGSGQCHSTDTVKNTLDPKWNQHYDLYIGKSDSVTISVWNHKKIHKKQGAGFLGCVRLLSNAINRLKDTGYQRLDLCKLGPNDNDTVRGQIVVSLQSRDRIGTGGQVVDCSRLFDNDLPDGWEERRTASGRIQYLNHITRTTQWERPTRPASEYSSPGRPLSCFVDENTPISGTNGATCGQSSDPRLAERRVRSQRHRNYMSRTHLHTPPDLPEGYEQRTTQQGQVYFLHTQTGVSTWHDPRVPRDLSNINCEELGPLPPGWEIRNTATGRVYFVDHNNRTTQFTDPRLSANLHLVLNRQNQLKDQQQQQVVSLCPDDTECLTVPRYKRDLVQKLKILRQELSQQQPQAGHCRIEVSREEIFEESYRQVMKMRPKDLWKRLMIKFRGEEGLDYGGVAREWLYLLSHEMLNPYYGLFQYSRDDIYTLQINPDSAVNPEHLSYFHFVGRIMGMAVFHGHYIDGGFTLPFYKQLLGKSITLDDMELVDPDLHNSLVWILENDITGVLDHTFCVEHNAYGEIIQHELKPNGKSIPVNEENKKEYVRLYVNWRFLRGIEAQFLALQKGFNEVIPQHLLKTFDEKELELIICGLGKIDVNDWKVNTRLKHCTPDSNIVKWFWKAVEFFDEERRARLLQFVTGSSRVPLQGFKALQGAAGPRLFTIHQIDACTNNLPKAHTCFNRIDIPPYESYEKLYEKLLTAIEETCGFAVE

| IC50 (Smurf-1) | IC50 (Smurf-2) | SMILES |
| --- | --- | --- |
| 0.005 µM | 3.2 µM | Cc1c(C(=O)Nc2c(C)n(C)n(C3CCCCC3)c2=O)noc1-c1ccc(Cl)cc1C1CC1 [Example 069, 5-(4-Chloro-2-cyclopropylphenyl)-N-(2-cyclohexyl-1,5-dimethyl-3-oxo-2,3-dihydro-1H-pyrazol-4-yl)-4-methylisoxazole-3-carboxamide] |
| 1.16 µM | > 10 µM | COc1ccc(-c2onc(C(=O)Nc3c(C)n(C)n(-c4ccccc4F)c3=O)c2Cl)c(F)c1 [Example 022, 4-Chloro-5-(2-fluoro-4-methoxyphenyl)-N-(2-(2-fluorophenyl)-1,5-dimethyl-3-oxo-2,3-dihydro-1H-pyrazol-4-yl) isoxazole-3-carboxamide] |
| 0.0235 µM | 6.75 µM | Cc1c(C(=O)Nc2c(C)n(C)n(C3CCCCC3)c2=O)noc1-c1ccc(Cl)cc1 [Example 049, 5-(4-Chlorophenyl)-N-(2-cyclohexyl-1,5-dimethyl-3-oxo-2,3-dihydro-1H-pyrazol-4-yl)-4-methylisoxazole-3-carboxamide] |
| 0.102 µM | > 20 µM | COc1ccc(-c2onc(C(=O)Nc3c(C)n(C)n(-c4ccccc4F)c3=O)c2C)c(C(F)(F)F)c1 [Example 013, N-(2-(2-Fluorophenyl)-1,5-dimethyl-3-oxo-2,3-dihydro-1H-pyrazol-4-yl)-5-(4-methoxy-2-(trifluoromethyl)phenyl)-4-methylisoxazole-3-carboxamide] |
| 0.0037 µM | 5.23 µM | COc1ccc(-c2onc(C(=O)Nc3c(C)n(C)n(C4CCCCC4)c3=O)c2Br)c(Cl)c1 [Example 034, 4-Bromo-5-(2-chloro-4-methoxyphenyl)-N-(2-cyclohexyl-1,5-dimethyl-3-oxo-2,3-dihydro-1H-pyrazol-4-yl)isoxazole-3-carboxamide] |
| 0.036 µM | 17.8 µM | Cc1c(NC(=O)c2noc(-c3ccc(Cl)cc3Cl)c2Br)c(=O)n(-c2ccccc2F)n1C [Example 037, 4-Bromo-5-(2,4-dichlorophenyl)-N-(2-(2-fluorophenyl)-1,5-dimethyl-3-oxo-2,3-dihydro-1H-pyrazol-4-yl)isoxazole-3-carboxamide] |
| 0.033 µM | 17.8 µM | COc1c(C)cccc1-c1onc(C(=O)Nc2c(C)n(C)n(C3CCCCC3)c2=O)c1C [Example 070, N-(2-Cyclohexyl-1 ,5-dimethyl-3-oxo-2,3-dihydro-1H-pyrazol-4-yl)-5-(2-methoxy-3-methylphenyl)-4-methylisoxazole-3-carboxamide] |
| 0.0505 µM | > 20.2 µM | COc1ccc(-c2onc(C(=O)Nc3c(C)n(C)n(C4CCCCC4)c3=O)c2C2CC2)c(C(F)(F)F)c1 [Example 085, N-(2-Cyclohexyl-1,5-dimethyl-3-oxo-2,3-dihydro-1H-pyrazol-4-yl)-4-cyclopropyl-5-(4-methoxy-2-(trifluoromethyl)phenyl)isoxazole-3-carboxamide] |
| 0.0134 µM | 3.66 µM | Cc1c(C(=O)Nc2c(C)n(C)n(-c3ccccc3F)c2=O)noc1-c1ccc(C2CC2)cc1Cl [Example 002, 5-(2-Chloro-4-cyclopropylphenyl)-N-(2-(2-fluorophenyl)-1,5-dimethyl-3-oxo-2,3-dihydro-1H-pyrazol-4-yl)-4-methylisoxazole-3-carboxamide] |
| 0.45 µM | 19.2 µM | Cc1c(NC(=O)c2noc(-c3ccc(Cl)cc3Cl)c2C#N)c(=O)n(-c2ccccc2F)n1C [Example 042, 4-Cyano-5-(2,4-dichlorophenyl)-N-(2-(2-fluorophenyl)-1,5-dimethyl-3-oxo-2,3-dihydro-1H-pyrazol-4-yl)isoxazole-3-carboxamide] |
| 0.0024 µM | 4.25 µM | Cc1c(NC(=O)c2noc(-c3ccc(Cl)cc3Cl)c2Cl)c(=O)n(C2CCCCC2)n1C [Example 023, 4-Chloro-N-(2-cyclohexyl-1,5-dimethyl-3-oxo-2,3-dihydro-1H-pyrazol-4-yl)-5-(2,4-dichlorophenyl) isoxazole-3-carboxamide] |
| 0.883 µM | > 10 µM | Cc1c(C(=O)Nc2c(C)n(C)n(-c3ccccc3F)c2=O)noc1-c1ccc(C(F)(F)F)cc1 [Example 008, N-(2-(2-Fluorophenyl)-1,5-dimethyl-3-oxo-2,3-dihydro-1H-pyrazol-4-yl)-4-methyl-5-(4-(trifluoromethyl)phenyl) isoxazole-3-carboxamide] |
| 0.024 µM | 7.5 µM | Cc1c(C(=O)Nc2c(C)n(C)n(C3CCCCC3)c2=O)noc1-c1ccc(Cl)cc1F [Example 057, 5-(4-Chloro-2-fluorophenyl)-N-(2-cyclohexyl-1,5-dimethyl-3-oxo-2,3-dihydro-1H-pyrazol-4-yl)-4-methylisoxazole-3-carboxamide] |
